From paper PMC11934079, “Structural and Mechanistic Characterization of the Flavin-Dependent Monooxygenase and Oxidase Involved in Sorbicillinoid Biosynthesis” (ACS Chemical Biology, 2025)
Each block holds one molecule with its values, some of them ahead of it.

Tests used:
SorC [1] = target: T1, SorC (Penicillium rubens, UniProt B6HN76); experiment: enzyme kinetics; format: biochemical; details: coenzyme; hydroxylation of sorbicillin
T1 construct: monomer

SorC [2] = target: T1, SorC; experiment: microscale thermophoresis; format: binding
SorD [3] = target: T2, SorD (Penicillium rubens, UniProt B6HNK6); experiment: microscale thermophoresis; format: binding
T2 construct: C-terminal His6 tag, endogenous signal peptide (residues 5-22 partly seen in structure), secreted from Aspergillus niger; N-glycosylated; ~50 kDa theoretical, 61 kDa measured; monomer; FAD covalent at His78
T2 sequence (B6HNK6 whole entry, the tested form may be a part): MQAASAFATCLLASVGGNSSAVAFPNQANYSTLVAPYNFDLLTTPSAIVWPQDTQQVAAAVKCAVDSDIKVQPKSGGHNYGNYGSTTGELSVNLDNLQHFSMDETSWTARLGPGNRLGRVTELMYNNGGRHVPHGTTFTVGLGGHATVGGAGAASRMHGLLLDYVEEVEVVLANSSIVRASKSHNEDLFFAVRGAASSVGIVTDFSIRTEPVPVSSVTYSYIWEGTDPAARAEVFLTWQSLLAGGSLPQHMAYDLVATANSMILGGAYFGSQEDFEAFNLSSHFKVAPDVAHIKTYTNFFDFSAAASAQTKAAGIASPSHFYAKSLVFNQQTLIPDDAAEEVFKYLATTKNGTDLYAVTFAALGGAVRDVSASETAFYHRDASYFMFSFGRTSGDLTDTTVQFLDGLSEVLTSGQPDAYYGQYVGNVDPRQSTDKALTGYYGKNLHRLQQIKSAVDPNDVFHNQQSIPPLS

SorC [4] = target: T3, SorC (Penicillium rubens, UniProt B6HN76, R201A); experiment: microscale thermophoresis; format: binding
T3 construct: monomer
T3 sequence (B6HN76 whole entry R201A): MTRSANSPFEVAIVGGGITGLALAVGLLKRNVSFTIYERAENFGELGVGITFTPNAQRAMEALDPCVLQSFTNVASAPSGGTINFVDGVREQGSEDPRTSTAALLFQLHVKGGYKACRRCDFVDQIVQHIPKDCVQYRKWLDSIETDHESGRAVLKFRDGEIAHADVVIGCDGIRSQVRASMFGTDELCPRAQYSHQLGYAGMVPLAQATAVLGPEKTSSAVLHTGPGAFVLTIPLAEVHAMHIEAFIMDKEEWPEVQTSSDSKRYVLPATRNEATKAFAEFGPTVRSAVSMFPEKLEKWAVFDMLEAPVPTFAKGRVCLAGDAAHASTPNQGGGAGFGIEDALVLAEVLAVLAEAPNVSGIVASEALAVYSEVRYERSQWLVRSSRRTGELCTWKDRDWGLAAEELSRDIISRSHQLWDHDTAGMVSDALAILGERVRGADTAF

SorC [5] = target: T1, SorC; experiment: X-ray crystal structure, […] Å; format: binding; details: flavin out conformation; without sorbicillin
SorD [6] = target: T2, SorD; experiment: X-ray crystal structure, […] Å; format: binding; details: covalent; attached to His78; without sorbicillin

T1 sequence (B6HN76 whole entry): as the sequence (B6HN76 whole entry R201A) above, with A201R counted along it

SMILES: NC(=O)C1=CN([C@@H]2O[C@H](COP(=O)(O)OP(=O)(O)OC[C@H]3O[C@@H](n4cnc5c(N)ncnc54)[C@H](O)[C@@H]3O)[C@@H](O)[C@H]2O)C=CC1 [NADH]
- catalytic efficiency (SorC [1]): both NADH and NADPH were accepted as coenzymes, with NADH having a higher overall catalytic efficiency

SMILES: NC(=O)C1=CN([C@@H]2O[C@H](COP(=O)(O)OP(=O)(O)OC[C@H]3O[C@@H](n4cnc5c(N)ncnc54)[C@H](OP(=O)(O)O)[C@@H]3O)[C@@H](O)[C@H]2O)C=CC1 [NADPH]
- catalytic efficiency (SorC [1]): both NADH and NADPH were accepted as coenzymes

- Kd (SorC [2]): 940 ± 93 nM
- Kd (SorD [3]): 1200 ± 1600 nM
- Kd (SorC [4]): 12600 ± 9700 nM
SMILES: C/C=C/C=C/C(=O)c1cc(C)c(O)c(C)c1O [compound 1, sorbicillin]

SMILES: Cc1cc2nc3c(=O)[nH]c(=O)nc-3n(C[C@H](O)[C@H](O)[C@H](O)COP(=O)(O)OP(=O)(O)OC[C@H]3O[C@@H](n4cnc5c(N)ncnc54)[C@H](O)[C@@H]3O)c2cc1C [FAD]
- X-ray crystal structure, 1.4 Å (SorC [5]): SorC without sorbicillin shows that the oxidized flavin is already in the out conformation
- X-ray crystal structure, 1.55 Å (SorD [6]): SorD, where the FAD is covalently attached to residue His78
